Values joined by “and” are separate entries in the source; they are usually repeats but may differ in a detail not shown here. Equal entries are not always repeated. Where two headings read alike, the source gives them in different places.
System: AMPA receptors
Assay: AMPA ES Cell FLIPR Screen, G7330B (EC50 and % effect)
Assay type: cell-based, murine
Settings: for EC50: ES cell-derived neurons, 32 uM AMPA challenge
Experimental: The murine ES cell line used was E14-Sx1-16C, which has a targeted mutation in the Sox1 gene, a neuroectodermal marker, that offers G418 resistance when the Sox1 gene is expressed (Stem Cell Sciences). ES cells were maintained undifferentiated as previously described (Roach). […] ES cells were plated on gelatin-coated dishes (BD Biosciences), the media was changed daily and the cells were dissociated with 0.05% Trypsin EDTA (Invitrogen) every other day.
Embryoid Body Formation: Prior to embryoid body (EB) formation the ES cells were weaned from FBS onto Knockout Serum Replacement (KSR) (Invitrogen). To form EBs, ES cells were dissociated into a single cell suspension then 3×10^6 cells were plated in bacteriology dishes (Nunc 4014) and grown as a suspension culture in NeuroEB-I medium that consisted of Knockout™ D-MEM (Invitrogen), supplemented with 10% KSR (Invitrogen), 0.2 mM L-Glutamine (Invitrogen), 0.1 mM MEM non-essential amino acids (Invitrogen), 30 μg/ml Gentamicin (Invitrogen), 1000 u/ml ESGRO (Chemicon), 0.1 mM 2-Mercaptoethanl (Sigma) and 150 ng/ml Transferrin (Invitrogen). The plates were put on a Stovall Belly Button shaker in an atmospheric oxygen incubator. The media was changed on day 2 of EB formation with NeuroEB-I and on day 4 with NeuroEB-II (NeuroEB-I plus 1 μg/ml mNoggin [R&D Systems]).
Neuronal Precursor Selection and Expansion: On day 5 of EB formation, EBs were dissociated with 0.05% Trypsin EDTA, and 4×10^6 cells/100 mm dish were plated on Laminin coated tissue culture dishes in NeuroII-G418 medium that consisted of a base medium of a 1:1 mixture of D-MEM/F12 supplemented with N2 supplements and NeuroBasal Medium supplemented with B27 supplement and 0.1 mM L-Glutamine (all from Invitrogen). The base medium was then supplemented with 10 ng/ml bFGF (Invitrogen), 1 μg/ml mNoggin, 500 ng/ml SHH-N, 100 ng/ml FGF-8b (R&D Systems), 1 μg/ml Laminin and 200 μg/ml G418 (Invitrogen) for selection of neuronal precursors expressing Sox-1. The plates were put in an incubator that contained 2% Oxygen and were maintained in these conditions. During the 6-day selection period, the NeuroII media was changed daily. On day 6, the surviving neuronal precursor foci were dissociated with 0.05% Trypsin EDTA and the cells were plated at a density of 1.5×10^6 cells/100 mm Laminin coated dish in NeuroII-G418 medium. The cells were dissociated every other day for expansion, and prepared for Cryopreservation at passage 3 or 4. The cryopreservation medium contained 50% KSR, 10% Dimethyl Sulfoxide (DMSO) (Sigma) and 40% NeuroI-G418I medium. Neuronas precursors were crypreserved at a concentration of 4×10^6cells/ml and 1 ml/cryovial in a controlled rate freezer overnight then transferred to an ultra-low freezer or liquid nitrogen for long-term storage,
Neuronal Differentiation: Cryopreserved ES cell-derived neuronal precursors were thawed by the rapid thaw method in a 37-degree water-bath. The cells were transferred from the cryovial to a 100 mm Laminin coated tissue culture dish that already contained NeuroII-G418 that had been equilibrated in a 2% Oxygen incubator. The media was changed with fresh NeuroII-G418 the next day. The cells were dissociated every other day as described above for expansion to generate enough cells to plate for the screen. For the screen, the cells were plated into 384-well poly-d-lysine coated tissue culture dishes (BD Biosciences) by the automated SelecT at a cell density of 6K cells/well in differentiation medium NeuroIII that contained a 4:1 ratio of the NeuroBasalMedium/B27:D-MEM/F12/N2 supplemented with 1 μM cAMP (Sigma), 200 μM Ascorbic Acid (Sigma), 1 μg/ml Laminin (Invitrogen) and 10 ng/ml BDNF (R&D Systems). The plates were put in an incubator with 2% Oxygen and allowed to complete the differentiation process for 7 days. The cells could then be used over a 5-day period for the high throughput screen.
Procedure for AMPA ES Cell FLIPR Screen […]

[1] = Dose 32.0 uM, individual determinations
[2] = mean of individual determinations (range and n in cells below), read-out: G7330B mean EC50
[3] = individual determinations, read-out: G7330B (U): EC50
[4] = Dose 31.6 uM, individual determinations

Row | SMILES | EC50 [2] [µM] | EC50 [3] | G7330B (U): % Effect [1] | G7330B (U): % Effect [4]
1 | CC(=O)N1CCC(NS(=O)(=O)C(C)C)C(c2ccc(-c3ccc(C#N)cc3)cc2)C1 (stereo not drawn) [Example 28, Propane-2-sulfonic acid[trans-1-acetyl-3-(4′-cyano-biphenyl-4-yl)-piperidin-4-yl]-amide] | 6.44 | 6.44 µM | 128% and 132% and 116% | –
2 | CC(C)S(=O)(=O)NC1CCNCC1c1ccc(-c2ccc(C#N)cc2)cc1 (stereo not drawn) [Example 19, Propane-2-sulfonic acid[trans-3-(4′-cyano-biphenyl-4-yl)-piperidin-4-yl]-amide] | > 32 | > 32 µM | 6.07% and 7.12% and 6.19% | –
3 | CC(=O)N1CCC(NS(=O)(=O)C(C)C)C(c2ccc(-c3ccccc3C#N)cc2)C1 (stereo not drawn) [Example 29, Propane-2-sulfonic acid[trans-1-acetyl-3-(2′-cyano-biphenyl-4-yl)-piperidin-4-yl]-amide] | 2.07 | 1.73 µM and 1.44 µM and 2.16 µM and 1.96 µM and 1.28 µM and 1.51 µM and 2.74 µM and 2.29 µM and 3.61 µM and 3.13 µM | – | 201% and 204% and 155% (2×) and 159% and 194% and 364% and 391% and 363% and 195% (3×) and 187% and 150% and 151% and 202%
4 | CC(C)S(=O)(=O)NC1COCCC1c1ccc(-c2ccccc2)cc1 (stereo not drawn) [Example 30, Propane-2-sulfonic acid(trans-4-biphenyl-4-yl-tetrahydro-pyran-3-yl)-amide] | > 10.3 | 5.39 µM and > 31.6 µM and 6.36 µM | 119% and 113% and 126% | –
5 | CC(C)S(=O)(=O)N[C@@H]1CCN(C)C[C@H]1c1ccc(NC(=O)c2ccccc2)cc1 (relative stereo) [Example 44, N-{4-[trans-1-Methyl-4-(propane-2-sulfonylamino)-piperidin-3-yl]-phenyl}-benzamide] | > 31.6 | > 31.6 µM | – | 1.85% and 1.10% and 5.81%
6 | CC(=O)N1CC[C@@H](NS(=O)(=O)C(C)C)[C@H](c2ccc(NC(=O)c3ccccc3)cc2)C1 (relative stereo) [Example 39, N-{4-[trans-1-Acetyl-4-(propane-2-sulfonylamino)-piperidin-3-yl]-phenyl}-benzamide] | 20.2 | 20.2 µM | – | 145% and 142%
7 | CC(C)S(=O)(=O)NC1COCCC1c1ccc(-c2ccc(F)cc2)cc1 (stereo not drawn) [Example 32, Propane-2-sulfonic acid[trans-4-(4′-fluoro-biphenyl-4-yl)-tetrahydro-pyran-3-yl]-amide] | 2.57 | 2.57 µM | – | 120% and 127% and 115%
8 | CC(=O)N1CC[C@@H](NS(=O)(=O)C(C)C)[C@H](c2ccc(NC(=O)c3cc(F)cc(F)c3)cc2)C1 (relative stereo) [Example 40, N-{4-[trans-1-Acetyl-4-(propane-2-sulfonylamino)-piperidin-3-yl]-phenyl}-3,5-difluoro-benzamide] | 11.7 | 11.7 µM | – | 152% and 179% and 176%
9 | CC(C)S(=O)(=O)NC1CCNCC1c1ccc(-c2ccccc2)cc1 (stereo not drawn) [Example 18, Propane-2-sulfonic acid(trans-3-biphenyl-4-yl-piperidin-4-yl)-amide] | > 32 | > 32 µM | 5.77% and 3.59% and 3.97% | –
10 | CC(C)S(=O)(=O)NC1COCCC1c1ccc(-c2ccc(C#N)cc2)cc1 (stereo not drawn) [Example 35, Propane-2-sulfonic acid[trans-4-(4′-cyano-biphenyl-4-yl)-tetrahydro-pyran-3-yl]-amide] | 8.97 | 8.97 µM | – | 146% and 155% and 152%
11 | CC(C)S(=O)(=O)NC1CCN(C)CC1c1ccc(-c2ccc(C#N)cc2)cc1 (stereo not drawn) [Example 24, Propane-2-sulfonic acid[trans-3-(4′-cyano-biphenyl-4-yl)-1-methyl-piperidin-4-yl]-amide] | > 31.6 | > 31.6 µM | – | 14.5% and 19.9% and 12.7%

More lines, main results first:

Row | EC50 [2] [µM] | EC50 [3] | SMILES | G7330B (U): % Effect [1] | G7330B (U): % Effect [4]
12 | > 4.2 | – | CC(C)S(=O)(=O)N[C@H]1CN(C)CC[C@@H]1c1ccc(-c2ccccc2)cc1 [Example 3, Propane-2-sulfonic acid ((3R,4R)-4-biphenyl-4-yl-1-methyl-piperidin-3-yl)-amide] | 99.8% and 94.3% and 83.1% and 129% and 98.9% and 119% | –
13 | > 32 | > 32 µM | CC(C)S(=O)(=O)NC1CCNCC1c1ccc(-c2cc(Cl)ccc2Cl)cc1 (stereo not drawn) [Example 23, Propane-2-sulfonic acid[trans-3-(2′,5′-dichloro-biphenyl-4-yl)-piperidin-4-yl)]-amide] | 10.1% and 9.71% and 6.91% | –
14 | > 32 | > 32 µM | CC(C)S(=O)(=O)NC1COCCC1c1ccc(-c2ccccc2)cc1 (stereo not drawn) [Example 31, Propane-2-sulfonic acid(cis-4-biphenyl-4-yl-tetrahydro-pyran-3-yl)-amide] | 18.3% and 11.0% and 14.5% | –
15 | 1.25 | 1.25 µM | CC(C)S(=O)(=O)N[C@@H]1COCC[C@H]1c1ccc(-c2ccccc2C#N)cc1 [Example 34, Propane-2-sulfonic acid[trans-4-(2′-cyano-biphenyl-4-yl)-tetrahydro-pyran-3-yl]-amide] | – | 137%
16 | > 32 | > 32 µM | CC(C)S(=O)(=O)NC1CCNCC1c1ccc(-c2ccccc2C#N)cc1 (stereo not drawn) [Example 20, Propane-2-sulfonic acid[trans-3-(2′-cyano-biphenyl-4-yl)-piperidin-4-yl]-amide] | 39.9% and 48.6% and 44.4% | –
17 | > 31.6 | > 31.6 µM | CC(C)S(=O)(=O)N[C@@H]1CCN(C)C[C@H]1c1ccc(NC(=O)c2cc(F)cc(F)c2)cc1 (relative stereo) [Example 45, 3,5-Difluoro-N-{4-[trans-1-methyl-4-(propane-2-sulfonylamino)-piperidin-3-yl]-phenyl}-benzamide] | – | −0.114% and 0.0432% and −0.344%
18 | > 31.6 | > 31.6 µM | CCN1CC[C@@H](c2ccc(-c3ccccc3)cc2)[C@H](NS(=O)(=O)C(C)C)C1 (relative stereo) [Example 5, propane-2-sulfonic acid (trans-4-biphenyl-4-yl-1-ethyl-piperidin-3-yl)-amide] | – | 76.3% and 78.8%
19 | 3.64 | 2.84 µM and 3.14 µM and 5.42 µM | CC(C)S(=O)(=O)NC1CCOCC1c1ccc(-c2ccccc2)cc1 (stereo not drawn) [Example 15, Propane-2-sulfonic acid(trans-3-biphenyl-4-yl-tetrahydro-pyran-4-yl)-amide] | 108% and 109% and 101% | –
20 | > 31.6 | > 31.6 µM | CC(=O)N1CCC(c2ccc(-c3ccccc3)cc2)C(NS(=O)(=O)C(C)C)C1 (stereo not drawn) [Example 43, Propane-2-sulfonic acid(trans-1-acetyl-4-biphenyl-4-yl-piperidin-3-yl)-amide] | – | 85.0% and 92.2% and 102%
21 | > 18.2 | 10.4 µM and > 31.6 µM and > 10 µM | CCS(=O)(=O)NC1CCOCC1c1ccc(-c2ccccc2)cc1 (stereo not drawn) [Example 16, Ethanesulfonic acid(trans-3-biphenyl-4-yl-tetrahydro-pyran-4-yl)-amide] | 153% and 141% and 140% | –
22 | > 32 | > 32 µM | CC(C)S(=O)(=O)N[C@@H]1CCNC[C@H]1c1ccc(-c2ccccc2C(N)=O)cc1 (relative stereo) [Example 21, 4′-[trans-4-(Propane-2-sulfonylamino)-piperidin-3-yl]-biphenyl-2-carboxylic acid amide] | 0.573% and 0.266% and 0.149% | –

— US20100035865A1, “Sulfonamides and Pharmaceutical Compositions Thereof” (PFIZER INC, priority 2007, published 2010)
